The text below walks through data of publication PMC3971658 (The Journal of General Physiology, 2014).

Marks after values point to notes of the source that are not given here. Where no end group is shown, it is not given here.

Usually inhibition stands for how much of the control response was suppressed.

Common to all, as to format: cell-based
Test [1] has as its system c-Src / human Cav2.3c channel and GABABR.
The test system of test [2] is c-Src / human Cav2.1 channel and GABABR.
In a further test the test system is Human Cav2.3d (Y1761F). The settings on record: 50 µM.
For a further test, the system named is Human Cav2.3d (Y1765F). The conditions noted are these: read-out: IBa inhibition; 50 µM.
For another test, the system named is Human Cav2.3c (Y1761F). The settings on record: 50 µM.
The next test deals with Human Cav2.1 (L1852T). The settings on record: read-out: IBa inhibition; 50 µM.
Another test deals with Human Cav2.1 (Q1856E). The settings on record: read-out: IBa inhibition; 50 µM.

Take “pp60c-Src peptide: phosphorylated synthetic pp60c-Src peptide (521–533) (DYFTSTEPQYQPG; also: phosphorylated, site not given here; UniProt P12931 521-533, looked up, fragment)”: in test [1], the “effect of pp60c-Src peptide on c-Vc1.1 and baclofen inhibition of IBa” value is on record as “The effect of K295R/Y527F c-Src was recapitulated”. In test [2], the “baclofen inhibition of IBa with wild-type c-Src overexpression or pp60c-Src peptide” value is recorded as “did not affect baclofen inhibition of IBa”.

As to `NCC(CC(=O)O)c1ccc(Cl)cc1` (stereo not shown) [Baclofen, baclofen], the results for the IBa inhibition in the test with Human Cav2.3d (Y1761F) and with Human Cav2.3c (Y1761F) were 21.9 ± 1.8 (11) ^c % and 14.6 ± 1.8 (8) ^c %, respectively. Moreover, the inhibition with Human Cav2.3d (Y1765F) amounted to 28.9%; in the test on Human Cav2.1 (L1852T), 50.6%; with Human Cav2.1 (Q1856E), 47.9%.
